The values below come from publication PMC8777952, “Lignin Nanoparticles Deliver Novel Thymine Biomimetic Photo-Adducts with Antimelanoma Activity” (International Journal of Molecular Sciences, 2022).

Series [1] is described as follows: Loading capacity and loading efficiency of lignin nanoparticles. The class given is physicochemical. The procedure:
A further increase in the secondary solvent afforded low stable colloidal LNPs (18 mL; Table 3, entry 4) and aggregates (24 mL; Table 3, entry 5). Finally, LNPs were not formed after the addition of high volumes of deionized water (Table 3, entries 6–8). The optimal conditions affording stable colloidal LNPs (1:5 w/w and 1:10 w/w 4a/KL ratio, 3.0 mL of DMI/water 2:1 v/v, and 6.0 mL of secondary solvent) were successively applied for the encapsulation of 4b-d, and of the most abundant photo-adducts 6a-d and 8a-d. The loading capacity (LC) and loading efficiency (LE) Equations (1) and (2) were measured as a function of the concentration of the encapsulated compound [55, 56, 57, 58].
LNPs were separated by centrifugation, and the supernatant was analyzed by HPLC at λmax value of the encapsulated compound (271 nm for 4a-d, 191 nm for 6a-d, and 192 nm for 8a-d, respectively). Irrespective from the experimental conditions, the highest LE and LC were obtained in the presence of the highest value of the compound/KL ratio (compound/KL ratio of 1:5). […] (1) LC %:weight of starting drug−weight of unloaded drug/weight of lignin (2) LE %:weight of starting drug−weight of unloaded drug/weight of starting drug
LNPs were produced and loaded by the nanoprecipitation technique. The appropriate compound (3 mg) was dissolved in DMI/water (3.0 mL) at 50 °C under gentle stirring conditions followed by the addition of KL (15 mg). The fast addition of deionized water (6.0 mL) instantaneously produced LNPs. LNPs were then recovered by centrifugation (7500 rpm), washed with deionized water (10 mL) for 3 times, and lyophilized. The loading capacity (LC) and loading efficiency (LE) were evaluated by UHPLC analysis.

The subject of the next series is SK-Mel28. Briefly: MTT cell viability assay, SK-Mel28 melanoma cells. The class given is cell-based, human. As to conditions: for SI (SKMel28): 24 h, ratio reference cell line FB789 versus melanoma cell line; for IC50: Homo sapiens, SK-MEL-28, 24 h. From the text: (§1) Preliminary sunscreen data of 4a-d have been reported focusing on SKH1-E cell line, human abdominal skin explants, and in vivo hairless mouse models. Data for photo-adducts 6a-d, 7a-d, and 8a-d are not available. Thymine photo-adducts are well recognized as responsible for the activation of different molecular pathways involved in the cellular response to UV damage, including DNA repair system, melanogenesis, and Nucleotide Excision Repair (NER) system. In addition, TOP1ccs trapped near photo-adducts activates BER and remove (6-4)PPs in NER-deficient cells. TOP1 is highly expressed in malignant tumors, including carcinomas of the colon, prostate, ovary, lung, and melanoma. […] For this reason, we decided to study the antimelanoma activity of 4a-d, 6a-d, and 8a-d against two melanoma cancer cell lines, namely SK-MEL28 and RPMI7951 bearing a different genetic background. The antimelanoma activity was determined using the MTT cell viability assay, following the absorbance change (λmax 570 nm and 630 nm). The human FB789 cell line was used as reference. The CC50 (cytotoxic concentration that causes death of 50% of viable cells), IC50 (minimum concentration inhibiting 50% of the melanoma cells), and Selective Index (SI) (ratio between IC50 of reference cell line versus melanoma cell line) values are reported in Table 5. […] Compounds 4a-d were ineffective against melanoma cell lines. […] 234. Next, the antimelanoma activity of compounds 8a and 8b was evaluated after loading inside LNPs.
(§2) FB789 was grown in DMEM/F10, RPMI7951 melanoma cancer cells were grown in Minimal Essential Medium (MEM), while SK-Mel 28 melanoma cancer cells were grown in Dulbecco’s Modified Eagle Medium (DMEM). All culture media were supplemented with 10% Fetal Bovine Serum (FBS) plus 1.0 mM glutamine (40 µg/mL). The antimelanoma activity of 4a-d, 6a-d, and 8a-d was evaluated by MTT viability assay according to reference. Briefly, aliquots of the appropriate compound ([…]) were solubilized in dimethyl sulfoxide (one drops, DMSO) and administered to the selected cell line. After incubation for 3 h at 37 °C with MTT (0.5 mg/mL) the supernatant was removed, and […] of lysis solution (10% SDS and 0.6% acetic acid) was added to dissolve the formazan crystals. Optical density detection was performed by DTX880 Multimode Detector (Beckman Coulter) with 630 nm (background) and 570 nm filters. The percentage of cell viability was calculated as follows: % cell viability = 100–% cell cytotoxicity. The experiments for the evaluation of the antimelanoma activity of LNPs/8a and LNPs/8b were performed in a similar way using the appropriate amount of nanoparticles containing 1.0 mmol of the active compound and analyzing the antimelanoma activity at three different release times (2, 4, and 24 h).
A general note: Tetrazolium assays rely on reduction of a dye to a coloured formazan, in cell work by metabolically active cells.

Series [2] can be described thus: MTT cell viability assay, FB789 reference cell line. Type of series: cell-based. The settings on record: FB789 cells (normal human fibroblast).
From the text: as §1, §2

The next series deals with RPMI7951. As to the kind of experiment: MTT cell viability assay, RPMI7951 melanoma cells. The class given is cell-based, human. The settings on record: for SI (RPMI7951): 24 h, ratio reference cell line FB789 versus melanoma cell line; for IC50: Homo sapiens, RPMI-7951, 24 h.
From the text: as §1, §2

Details of series [3]: method as in PMID 25075037. The settings on record: commercial antitumor agents; cited from earlier work.
A short description of series [4]: UV shielding (photo-protective) capacity of loaded LNPs. Type of series: physicochemical. The settings on record: after 15 min of irradiation, loaded in LNPs versus free compound. As to the method:
The UV shielding capacity of LNPs allows them to protect bioactive compounds from premature deactivation. To evaluate the photo-protective role of LNPs we studied the irradiation of LNPs/4a, LNPs/6a, LNPs/7a, and LNPs/8a as a selected representative example of thymine dimers. The samples were suspended in DMI/water mixture (2:1 v/v, 1.0 mL) and treated with UV under previously reported experimental conditions. At scheduled times (5, 10, and 15 min), aliquots (0.2 mL) of the suspension were withdrawn and analyzed. An excess of DMI (1.0 mL) was added to disaggregate LNPs, followed by filtration of residual lignin. The residual concentrations of 4a, 6a, 7a, and 8a (expressed as % with respect to the starting material) were evaluated at λmax 271 nm. Data were compared with 4a, 6a, 7a, and 8a after irradiation under similar experimental conditions (Figure 3).
LNPs/4a were prepared following the standard procedure previously described. Typically, LNPs/4a (1.0 mg) suspended in DMI/water mixture (2:1 ratio, 1.0 mL) were deposited on a glass lens and irradiated with Haerus source (250 Watt, the lamp was at 20.0 cm distance). […] The photo-protection capacity of LNPs was determined by measuring the decrease in absorbance (λmax 271 nm) of recovered 4a compared with free reference (Varian UVCary-50). […]

A word on the IC50: it is the midpoint of a concentration-inhibition curve. Read a low IC50 as greater potency. The CC50 is the concentration giving 50% cytotoxicity. Read a low CC50 as greater toxicity to the cells. With `Cc1cn(CCCn2cc(C)c(=O)[nH]c2=O)c(=O)[nH]c1=O` [Compound 4a, N1,N1′-(propane-1,3-diyl)bis-thymine], in series [1] (Compd/KL ratio 1:5), the LC% turned out to be 5.59% and the LE% was 49.94%. Also, in series [1] (Compd/KL ratio 1:10), the LC% stood at 4.93% and the LE% is on record as 49.26%. Further, in the series with SK-Mel28, the “SI (SKMel28)” value is on record as 4.7 and the IC50 amounted to 304.3 ± 2.4 µM. Moreover, the CC50 at 24 h in series [2] was 1450 ± 56.2 µM. In the series on RPMI7951, the “SI (RPMI7951)” value was 2.7 and the IC50 was found to be 543.1 ± 2.7 µM.
With `Cc1cn(CCCCn2cc(C)c(=O)[nH]c2=O)c(=O)[nH]c1=O` [Compound 4b, N1,N1′-(butane-1,4-diyl)bis-thymine], in series [1] (Compd/KL ratio 1:5), the LC% stood at 10.38% and the LE% is on record as 51.91%. In series [1] (Compd/KL ratio 1:10), the LC% was determined as 4.24% and the LE% worked out at 52.40%. Also, in the series with SK-Mel28, the “SI (SKMel28)” value came out at 4.9 and the IC50 was determined as 169 ± 4.6 µM. Moreover, the CC50 at 24 h in series [2] came to 839 ± 10.9 µM. In addition, in the series with RPMI7951, the “SI (RPMI7951)” value is recorded as 0.07 and half-maximal inhibition (IC50) required 12400 µM.
In the case of `Cc1cn(CCCCCn2cc(C)c(=O)[nH]c2=O)c(=O)[nH]c1=O` [Compound 4c, N1,N1′-(pentane-1,5-diyl)bis-thymine], in series [1] (Compd/KL ratio 1:5), the LC% amounted to 12.52% and the LE% is on record as 69.70%. Moreover, in series [1] (Compd/KL ratio 1:10), the LC% is recorded as 6.97% and the LE% was 62.59%. In the series with SK-Mel28, the “SI (SKMel28)” value was found to be 5.7 and the 50% inhibitory concentration (IC50) came out at 292.9 ± 2.5 µM. For the same compound, in series [2], the CC50 at 24 h amounted to 1660 ± 36.3 µM. For the same compound, in the series with RPMI7951, the “SI (RPMI7951)” value is recorded as 4.6 and the concentration for half-maximal inhibition (IC50) was determined as 357 ± 5.1 µM.
With `O=c1[nH]cc(F)c(=O)[nH]1` [Compound 5-FU, 5-fluro uracil], the SI in series [3] is on record as 55.6.
Turning to `CC12C(=O)NC(=O)N3CCCN4C(=O)NC(=O)C1(C)C4C32` (stereo not shown) [Compound 6a, 6a,6b-dimethylhexahydro-1H-3a,5,8,9a-tetraazacyclohepta[def]biphenylene 4,6,7,9(5H,8H)-tetraone], in series [1] (Compd/KL ratio 1:5), the LC% worked out at 6.93% and the LE% turned out to be 37.40%. Moreover, in series [1] (Compd/KL ratio 1:10), the LC% was 6.81% and the LE% turned out to be 41.12%. Moreover, in the series with SK-Mel28, the “SI (SKMel28)” value is given as 4.39 and the midpoint of inhibition, the IC50, lay at 85.2 ± 0.9 µM. The midpoint of cytotoxicity in series [2], the CC50 at 24 h, lay at 375 ± 28.2 µM. Besides, in the series with RPMI7951, the “SI (RPMI7951)” value worked out at 2.7 and the half-inhibitory concentration (IC50) was determined as 138 ± 2.1 µM.
Consider `CC12C(=O)NC(=O)N3CCCCN4C(=O)NC(=O)C1(C)C4C32` (stereo not shown) [Compound 6b, 7a,7b-dimethyloctahydro-4a,6,9,10a-tetraazacycloocta[def]biphenylene-5,7,8,10(6H,9H)-tetraone], for which, in series [1] (Compd/KL ratio 1:5), the LC% was found to be 9.59% and the LE% worked out at 50.94%. Moreover, in series [1] (Compd/KL ratio 1:10), the LC% was 9.33% and the LE% is 50.74%. In addition, in the series with SK-Mel28, the “SI (SKMel28)” value is 6.09 and it took 17.9 ± 1.9 µM to reach half-maximal inhibition (IC50). In addition, the CC50 at 24 h in series [2] was determined as 109 ± 5.4 µM. Also, in the series with RPMI7951, the “SI (RPMI7951)” value is 1.4 and the concentration for half-maximal inhibition (IC50) turned out to be 77.8 ± 1.8 µM.
As for `CC12C(=O)NC(=O)N3CCCCCN4C(=O)NC(=O)C1(C)C4C32` (stereo not shown) [Compound 6c, 8a,8b-dimethyloctahydro-1H-5a,7,10,11a-tetraazacyclonona[def]biphenylene-6,8,9,11(7H,10H)-tetraone], in series [1] (Compd/KL ratio 1:5), the LC% is given as 11.46% and the LE% was found to be 51.12%. Besides, in series [1] (Compd/KL ratio 1:10), the LC% came out at 10.48% and the LE% worked out at 47.86%. For the same compound, in the series on SK-Mel28, the “SI (SKMel28)” value turned out to be 0.83 and the IC50 came to 282 ± 4.4 µM. The compound also yielded a CC50 at 24 h in series [2] of 234 ± 7.3 µM. Further, in the series with RPMI7951, the “SI (RPMI7951)” value is on record as 1.2 and 195 ± 3.8 µM corresponded to half-maximal inhibition (IC50).
Regarding `CC12C(=O)NC(=O)N3CCCCCCN4C(=O)NC(=O)C1(C)C4C32` (stereo not shown) [Compound 6d, 9a,9b-dimethyldecahydro-6a,8,11,12a-tetraazacyclodeca[def]biphenylene-7,9,10,12(8H,11H)-tetraone], in series [1] (Compd/KL ratio 1:5), the LC% is listed as 13.22% and the LE% amounted to 72.61%. In series [1] (Compd/KL ratio 1:10), the LC% worked out at 11.54% and the LE% is given as 71.98%. In the series with SK-Mel28, the “SI (SKMel28)” value is reported as 4.3 and the midpoint of inhibition, the IC50, lay at 87.9 ± 1.9 µM. Moreover, in series [2], the CC50 at 24 h came out at 377 ± 14.8 µM. In the series with RPMI7951, the “SI (RPMI7951)” value is 1.6 and the half-inhibitory concentration (IC50) was found to be 234.9 ± 1.6 µM.
The compound `Cc1cn2c(=O)nc1C1N(CCC2)C(=O)NC(=O)C1(C)O` (stereo not shown) [Compound 7a, 4-hydroxy-4,6-dimethyl-4,4a,10,11-tetrahydro-1H,9H-5,8-(azenomethano)pyrimido[1,6-e][1,5]diazonine-1,3,13(2H)-trione] gave a photo-protection capacity in series [4] of about 40%.
Take `CC[C@@]1(O)C(=O)OCc2c1cc1n(c2=O)Cc2cc3ccccc3nc2-1` [camptothecin]: in series [3], the SI is reported as 88.3.
On to `COc1cccc2c1C(=O)c1c(O)c3c(c(O)c1C2=O)C[C@@](O)(C(=O)CO)C[C@@H]3O[C@H]1C[C@H](N)[C@H](O)[C@H](C)O1` [doxorubicin], for which the SI in series [3] is 26.0.
